The source of these data is paper PMC7887755, “Structure–Activity Relationships of Pyrazolo[1,5-a]pyrimidin-7(4H)-ones as Antitubercular Agents” (ACS Infectious Diseases, 2021).

Data set [1] deals with Mtb H37Rv. In words: microbe, parasite or virus in culture. The following applies: for MIC: Mycobacterium tuberculosis, H37RV. The format is cell-based, Mycobacterium tuberculosis.
The next data set deals with Mtb strain H37Rv. Briefly: MIC against Mtb H37Rv under various media/carbon sources. It counts as cell-based. The following applies: Mycobacterium tuberculosis.
The test system of data set [2] is cell wall responsive iniBAC promoter (piniB-LUX reporter strain). The format is cell-based, Mycobacterium tuberculosis.
Data set [3] has as its system DNA damage responsive recA and radA reporters. It counts as cell-based, Mycobacterium tuberculosis.
The test system of the next data set is J774 cells. Briefly: Murine macrophage cytotoxicity (luminescence-based). The following applies: Mus musculus; murine macrophage cell line J774, 24 h; read-out: IC50 against J774 cells.
The subject of data set [4] is intramacrophage Mtb H37Rv. Briefly: Ex vivo efficacy against intracellular Mtb in J774 macrophages. The format is cell-based, Mycobacterium tuberculosis.
In data set [5] the test system is Mtb H37Rv. In words: MIC under iron-depleted (DFO) or iron-replete (FeCl3) conditions. It counts as cell-based, Mycobacterium tuberculosis.
The next data set concerns Mtb H37Rv WT. In words: microbe, parasite or virus in culture. It counts as cell-based. The settings on record: Mycobacterium tuberculosis.
The nature of data set [6]: Microsomal stability, mouse. The format is in vitro ADME. The following applies: liver microsomes of female mouse, read-out: % Remaining after 2 h incubation Mouse. As to the method:
(§1) % Remaining after 2 h incubation
(§2) Compound Chemical Structure
(§3) Table S1. Microsomal stability of some pyrazolo[1,5-a]pyrimidin-7(4H)-one derivatives
(§4) Microsomal stability was tested in microsomes from liver of female mouse (M9566 from Sigma-Aldrich)a or microsomes
(§5) from human liver (M0317 from Sigma-Aldrich)b.
(Microsomes from liver hold many membrane-bound enzymes, among them those of drug oxidation.)

A short description of data set [7]: Microsomal stability, human. It counts as in vitro ADME. The settings on record: human liver microsomes, read-out: % Remaining after 2 h incubation Human. As to the method:
as §1, §2, §3, §4, §5

The nature of another data set: in vitro. The settings on record: human, 24 h.
The next data set relates to iron uptake of Mtb H37Rv. In words: 55Fe iron uptake by Mtb. The format is cell-based, Mycobacterium tuberculosis. The settings on record: 55Fe-labelled medium; 1 at 10 μM, DFO at 39 μM.
Where [8] appears, read: pH 6, read-out: MIC nitrate/butyrate.
Where [9] appears, read: Cytotoxicity (IC50) Galactose, HepG2 cells in DMEM/10% FBS with galactose.
The mark [10] stands for this setting: Cytotoxicity (IC50) Glucose, HepG2 cells in DMEM/10% FBS supplemented with glucose.

In brackets after ≈: the same amount, converted by molar mass. Several values for one entry are separate records, joined by “and”; a condition that tells them apart may be missing. Identical values can stand only once. Like-named read-outs stand apart in the source and are kept apart here.

Take `Cc1nn2c(=O)cc(-c3ccc(F)c(F)c3)[nH]c2c1-c1ccccc1` [Compound P19, 5-(3,4-Difluorophenyl)-2-methyl-3-phenylpyrazolo[1,5-a]pyrimidin-7(4H)-one]: in the data set on Mtb H37Rv [1], the “improvement in MIC compared to the initial hit 1” value was determined as 5 fold. Moreover, the MIC in the data set with Mtb H37Rv [1] (read-out: MIC in 7H9 ADC) worked out at 2.73 µM (≈ 0.921 µg/mL); in the data set with Mtb H37Rv [1] (read-out: MIC in 7H9 GCas) it was 1.56 µM (≈ 0.526 µg/mL); in the data set with Mtb strain H37Rv (GAST/Fe, read-out: MIC GAST), 1.2 µM (≈ 0.405 µg/mL); in the data set on Mtb strain H37Rv (setting [8]), 1.56 µM (≈ 0.526 µg/mL); in the data set with Mtb strain H37Rv (read-out: MIC 7H9), 3.13 µM (≈ 1.06 µg/mL); with Mtb strain H37Rv (read-out: MIC Chol), 3.13 µM (≈ 1.06 µg/mL). For the same molecule, the MIC was determined as 3.13 µM (≈ 1.06 µg/mL) in the data set with Mtb strain H37Rv (read-out: MIC GBSA/DBSA) and 0.78 µM (≈ 0.263 µg/mL) in the data set with Mtb H37Rv WT. Further, the “reporter gene assay cell wall” value in data set [2] is “no”. Also, the “reporter gene assay DNA damage” value in data set [3] was “no”. The figures for the IC50 in the data set with J774 cells, in the data set “in vitro” (setting [9]) and in “in vitro” (setting [10]) were 29.6 ± 1.2 µM, 58.9 µM and over 100 µM, respectively. Moreover, the “reduction of bacterial burden” value in [4] is about 0.5 logs. In addition, the “increase in potency under iron-depleted conditions (MIC ratio)” value (“increase in potency … (MIC ratio)” below) in the data set with Mtb H37Rv [5] is listed as at most 2 fold. The amount remaining (in general, what is left of the initial amount, in per cent) at 2 h in data set [6] came out at 66%; in [7] it was 77%.
Regarding `Cc1nn2c(=O)cc(-c3ccc(F)c(F)c3)[nH]c2c1-c1ccc(Cl)cc1` [Compound P25, 3-(4-Chlorophenyl)-5-(3,4-difluorophenyl)-2-methylpyrazolo[1,5-a]pyrimidin-7(4H)-one], the “improvement in MIC compared to the initial hit 1” value in the data set with Mtb H37Rv [1] worked out at 8 fold. Also, the MIC in the data set on Mtb H37Rv [1] (read-out: MIC in 7H9 ADC) is 1.95 µM (≈ 0.725 µg/mL); in the data set with Mtb H37Rv [1] (read-out: MIC in 7H9 GCas), 3.12 µM (≈ 1.16 µg/mL). Besides, the results for the IC50 in the data set with J774 cells, in “in vitro” (setting [9]) and in “in vitro” (setting [10]) were 20.2 ± 0.8 µM, 52.6 µM and 94.3 µM, respectively. In addition, the “reduction of bacterial counts” value in data set [4] was 1.5 orders of magnitude and 2 orders of magnitude.
Consider `Cc1nn2c(=O)cc(-c3ccc(Cl)c(Cl)c3)[nH]c2c1-c1ccccc1` [Compound P20, 5-(3,4-Dichlorophenyl)-2-methyl-3-phenylpyrazolo[1,5-a]pyrimidin-7(4H)-one], for which the “improvement in MIC compared to the initial hit 1” value with Mtb H37Rv [1] is recorded as 5 fold. Besides, the MIC was 2.34 µM (≈ 0.866 µg/mL) with Mtb H37Rv [1] (read-out: MIC in 7H9 ADC) and 1.56 µM (≈ 0.578 µg/mL) with Mtb H37Rv [1] (read-out: MIC in 7H9 GCas). In addition, the share remaining at 2 h in data set [6] amounted to 41%; in data set [7], 55%. The IC50 (usually the midpoint of a concentration-inhibition curve) in “in vitro” (setting [9]) was 55.7 µM; in “in vitro” (setting [10]) it was over 100 µM.
Regarding `CC(=O)N(O)CCCCCNC(=O)CCC(=O)N(O)CCCCCNC(=O)CCC(=O)N(O)CCCCCN` [DFO, desferrioxamine, reference compound], in the data set with Mtb H37Rv [5] (Mycobacterium tuberculosis, H37RV, MIC of the iron-modulating additive itself), the MIC was found to be 250 µM. Also, the “effect on iron uptake” value in the data set on iron uptake of Mtb H37Rv is “completely inhibited uptake”.
Consider `Cc1nn2c(=O)cc(-c3ccc(Cl)c(Cl)c3)[nH]c2c1-c1ccc(F)cc1` [Compound P24, 5-(3,4-Dichlorophenyl)-3-(4-fluorophenyl)-2-methylpyrazolo[1,5-a]pyrimidin-7(4H)-one], for which the “improvement in MIC compared to the initial hit 1” value in the data set with Mtb H37Rv [1] came out at 8 fold. Also, the figures for the MIC in the data set on Mtb H37Rv [1] (read-out: MIC in 7H9 ADC), in the data set on Mtb H37Rv [1] (read-out: MIC in 7H9 GCas) and in the data set on Mtb H37Rv WT were 2.34 µM (≈ 0.908 µg/mL), 3.12 µM (≈ 1.21 µg/mL) and 1.56 µM (≈ 0.606 µg/mL), respectively. For the same molecule, the IC50 in the data set on J774 cells is 22.5 ± 2.1 µM; in “in vitro” (setting [9]) it was 38.7 µM; in “in vitro” (setting [10]) it was over 100 µM. The “increase in potency … (MIC ratio)” value with Mtb H37Rv [5] is on record as at most 2 fold.
As to `O=c1cc(CC2CCCCC2)[nH]c2c(-c3ccc(Cl)cc3)cnn12` [Compound 2, 3-(4-Chlorophenyl)-5-(cyclohexylmethyl)pyrazolo[1,5-a]pyrimidin-7(4H)-one, reference compound], the MIC amounted to 9.38 µM (≈ 3.21 µg/mL) with Mtb H37Rv [1] (read-out: MIC in 7H9 ADC); 0.78 µM (≈ 0.267 µg/mL) with Mtb H37Rv [1] (read-out: MIC in 7H9 GCas); 19 µM (≈ 6.49 µg/mL) in the data set with Mtb strain H37Rv (GAST/Fe, read-out: MIC GAST); 6.25 µM (≈ 2.14 µg/mL) with Mtb strain H37Rv (setting [8]); 19 µM (≈ 6.49 µg/mL) in the data set with Mtb strain H37Rv (read-out: MIC 7H9); 12.5 µM (≈ 4.27 µg/mL) in the data set on Mtb strain H37Rv (read-out: MIC Chol). The MIC in the data set with Mtb strain H37Rv (read-out: MIC GBSA/DBSA) is 4.7 µM (≈ 1.61 µg/mL); against Mtb H37Rv WT it was 0.39 µM (≈ 0.133 µg/mL). Moreover, the “reporter gene assay cell wall” value in data set [2] is given as “no”. Moreover, in data set [3], the “reporter gene assay DNA damage” value was “no”. Moreover, the “increase in potency … (MIC ratio)” value with Mtb H37Rv [5] is reported as “greater efficacy under iron-limited conditions”.
Take `Cc1nn2c(=O)cc(-c3ccccc3)[nH]c2c1-c1ccccc1` [Compound 1, 2-Methyl-3,5-diphenylpyrazolo[1,5-a]pyrimidin-7(4H)-one]: the MIC in the data set with Mtb H37Rv [1] (read-out: MIC in 7H9 ADC) stood at 12.5 µM (≈ 3.77 µg/mL); with Mtb H37Rv [1] (read-out: MIC in 7H9 GCas), 3.12 µM (≈ 0.94 µg/mL); in the data set with Mtb strain H37Rv (GAST/Fe, read-out: MIC GAST), 2.3 µM (≈ 0.693 µg/mL); in the data set with Mtb strain H37Rv (setting [8]), 12.5 µM (≈ 3.77 µg/mL); with Mtb strain H37Rv (read-out: MIC 7H9) it was 12.5 µM (≈ 3.77 µg/mL); in the data set with Mtb strain H37Rv (read-out: MIC Chol) it was 9.4 µM (≈ 2.83 µg/mL). Further, the MIC was found to be 12.5 µM (≈ 3.77 µg/mL) in the data set on Mtb strain H37Rv (read-out: MIC GBSA/DBSA) and 1.2 µM (≈ 0.362 µg/mL) against Mtb H37Rv WT. In addition, the “reporter gene assay cell wall” value in data set [2] was “no”. The “reporter gene assay DNA damage” value in data set [3] is given as “no”. The “effect on iron uptake” value in the data set on iron uptake of Mtb H37Rv is on record as “did not inhibit iron uptake”. Also, the fraction remaining at 2 h in [6] was 61%; in data set [7] it was 66%. Further, the IC50 in the data set “in vitro” (setting [9]) and in the data set “in vitro” (setting [10]) was over 100 µM throughout.
